Experimental findings from patent US7335770B2, “Triazine compounds and their analogs, compositions, and methods” (Reddy U5 Therapeutics, Inc., priority 2004, dated 2008) are described below.

The experiment has as its system smooth muscle cells (SMC). Briefly: anti-proliferation assay (perlecan). It is filed as cell-based. To be noted: for activity in anti-proliferation assay (Perlecan), in words: using the same activity scale used in Table 3; for IC50: anti-proliferation assay (perlecan). As to the method: The activity scale used in Table 3 as follows (numbers are inclusive): “+++” represents IC50 of less than about 3 μM; “++” represents IC50 of between about 3 and about 7 μM; and “+” represents IC50 of greater than about 7 μM. In addition, compounds, to include compositions thereof, encompassed within the scope of structures Ia-XXIVa, respectively, or listed in Tables 1A and 1E may be likewise employed in this embodiment and/or aspect of the present invention. Further, any hydrogen atoms that are required for any atom to attain its usual valence in a structure presented in Table 3, whether a carbon atom or a heteroatom, should be inferred if it is not specifically indicated.
In addition to the above compounds, the following compounds and compositions comprising these compounds are active in an anti-proliferation assay (Perlecan). These compounds and compositions comprising these compounds are, among other things, generally useful for treating cardiovascular disorders associated with proliferative activity. Specifically, these compounds include N^2-cycloheptyl-N^4-(3-fluoro-4-methoxyphenyl)-N^6-methyl-N^6-(1-methyl-piperidin-4-yl)-1,3,5-triazine-2,4,6-triamine, and N^2-cycloheptyl-N^4-methyl-N^4-(1-methyl-piperidin-4-yl)-N^6-naphthalen-2-yl-1,3,5-triazine-2,4,6-triamine.
Methods for identifying the activity and screening for one or more of these compounds or molecules that induce synthesis of proteoglycans such as HSPG (heparan sulfate proteoglycan) are taught in U.S. patent application Ser. No. 10/091,357, which is incorporated herein in its entirety. Assays of effects of compounds in vivo are also taught in the incorporated references and are known to those skilled in the art. In general, methods comprise the addition of such compounds to assays and measurement of HSPG synthesis including, but not limited to, the production of syndecans, glypicans and perlecans, for example, syndecans 1, 2 and 4; and glypican-1. Other assays that can be used to determine the activity of the compounds of the present invention include other methods for measuring the induction of perlecan synthesis. For example, in one assay, perlecan is induced in cells by certain inducers, and the response is measured. Compounds of the present invention are then added to a replicate assay and the effect on perlecan induction is determined. Using such methods, compounds are determined that can either inhibit perlecan, elevate induction of perlecan, or that have no effect at all. Those compounds that are effective as therapeutic agents can then be used in animals, humans or patients with cellular proliferation disease aspects, such as vascular-associated diseases or SMC proliferation pathologies.
Another assay for determining compounds having SMC effects comprises adding a composition suspected of affecting SMC proliferation to smooth muscle cells in growth medium or serum-free medium. The change in cell proliferation can be measured by methods known to those skilled in the art, such as incorporation of labeled nucleotides into dividing cells' DNA, and compared to the proliferation of cells which are not treated with the compound. Other measurements include directly determining levels of HSPG synthesis by measuring the amount or change in amount of HSPG such as with ELISA for HSPGs, and compared to the amount of HSPG synthesis in untreated cells. Other indirect or direct measurement are contemplated by the present invention and are known to those skilled in the art. For example, such methods include, but are not limited to, measurement of RNA levels, RT-PCR, Northern blotting, Western blotting promoter-based assays to identify compounds that affect one or more proteoglycans and assays for proteoglycan biological activity shown by recombinant proteins, partially purified proteins, or lysates from cells expressing proteoglycans in the presence or absence of compounds of interest.

[1] abbreviates: class of IC50, read-out: Activity (note 1).
Where [2] appears, read: some cells print no unit, read-out: Avg IC-50.

Structures can show the parent of a compound that is named as a salt. Where two headings read alike, the source gives them in different places.

In the case of `CCN1CCCC1CNc1nc(NC2CCCCCC2)nc(NC2CCC(O)CC2)n1` (stereo not shown) [4-{4-Cycloheptylamino-6-[(1-ethyl-pyrrolidin-2-ylmethyl)-amino]-[1,3,5]triazin-2-ylamino}-cyclohexanol], the “activity in anti-proliferation assay (Perlecan), in words” value (shortened to “activity in anti-proliferation assay”) was “high activity”.

`COc1ccc(Nc2nc(NC3CCCCCC3)nc(Sc3ccccc3C(C)(C)C)n2)cc1Cl` [6-(2-tert-Butyl-phenylsulfanyl)-N-(3-chloro-4-methoxy-phenyl)-N′-cycloheptyl-[1,3,5]triazine-2,4-diamine]: the “activity in anti-proliferation assay” value was “high activity”.

Take `COc1ccc(Nc2nc(NC3CCCCCC3)nc(Oc3ccccc3C#CC(C)(C)O)n2)cc1Cl` [4-{2-[4-(3-Chloro-4-methoxy-phenylamino)-6-cycloheptylamino-[1,3,5]triazin-2-yloxy]-phenyl}-2-methyl-but-3-yn-2-ol]: the “activity in anti-proliferation assay” value is recorded as “high activity”.

`COc1ccc(Nc2nc(NC3CCCCCC3)nc(Oc3cccnc3)n2)cc1Cl` [N-(3-Chloro-4-methoxy-phenyl)-N′-cycloheptyl-6-(pyridin-3-yloxy)-[1,3,5]triazine-2,4-diamine]: the “activity in anti-proliferation assay” value is “high activity”.

Turning to `CCN1CCCC(Oc2nc(Nc3ccc(OC)c(Cl)c3)nc(NC3CCCCCC3)n2)C1` (stereo not shown) [drawing 581, N-(3-Chloro-4-methoxy-phenyl)-N′-cyclo-heptyl-6-(1-ethyl-piper-idin-3-yloxy)-[1,3,5]triazine-2,4-di-amine], the IC50 under setting [1] lay within 3000 to 7000 nM and the IC50 under setting [2] was 4200 nM.

Turning to `COc1ccc(Nc2nc(NC3CCCCCC3)nc(NC3CCN(C(=O)CCCCC4SCC5NC(=O)NC54)CC3)n2)cc1Cl` (stereo not shown) [4-(5-{4-[4-(3-Chloro-4-methoxy-phenylamino)-6-cycloheptylamino-[1,3,5]triazin-2-ylamino]-piperidin-1-yl}-5-oxo-pentyl)-tetrahydro-thieno[3,4-d]imidazol-2-one], the “activity in anti-proliferation assay” value is “high activity”.

On to `COc1ccc(Nc2nc(NC3CCCCCC3)nc(Sc3c(Cl)cccc3Cl)n2)cc1Cl` [N-(3-Chloro-4-methoxy-phenyl)-N′-cycloheptyl-6-(2,6-dichloro-phenylsulfanyl)-[1,3,5]triazine-2,4-diamine], for which the “activity in anti-proliferation assay” value is “high activity”.

Turning to `COc1ccc(Nc2nc(NC3CCCCCC3)nc(Oc3ccc(C#CC(C)(C)O)cc3)n2)cc1Cl` [drawing 579, 4-{4-[4-(3-Chloro-4-methoxy-phenyl-amino)-6-cyclo-heptylamino-[1,3,5]triazin-2-yl-oxy]-phenyl}-2-methyl-but-3-yn-2-ol], the IC50 under setting [1] is under 3000 nM and the IC50 under setting [2] stood at 1900 nM.

Take `COc1ccc(Nc2nc(NC3CCCCCC3)nc(OC3CCCN(C(C)=O)C3)n2)cc1Cl` (stereo not shown) [drawing 577, 1-{3-[4-(3-Chloro-4-methoxy-phenyl-amino)-6-cyclo-heptylamino-[1,3,5]triazin-2-yl-oxy]-piperidin-1-yl}-ethanone]: the IC50 reads like this: under setting [1], 3000 to 7000 nM; under setting [2], 6500 nM.

Take `COc1ccc(Nc2nc(NCC3CCCO3)nc(NC3CCCCCC3)n2)cc1Cl` (stereo not shown) [drawing 587, N-(3-Chloro-4-methoxy-phenyl)-N′-cyclo-heptyl-N″-(tetrahydro-furan--2-ylmethyl)-[1,3,5]triazine-2,4,6-tri-amine]: the IC50 by setting is: under setting [1], under 3000 nM; under setting [2], 1360 nM.

Take `CCc1occc(=O)c1Oc1nc(Nc2ccc(OC)c(Cl)c2)nc(NC2CCCCCC2)n1` [3-[4-(3-Chloro-4-methoxy-phenylamino)-6-cycloheptylamino-[1,3,5]triazin-2-yloxy]-2-ethyl-pyran-4-one]: the “activity in anti-proliferation assay” value is given as “high activity”.

For `COc1ccc(Nc2nc(NCCN)nc(NC3CCCCCC3)n2)cc1Cl` [N-(2-Amino-ethyl)-N′-(3-chloro-4-methoxy-phenyl)-N″-cycloheptyl-[1,3,5]triazine-2,4,6-triamine], the “activity in anti-proliferation assay” value was “high activity”.

A word on the inhibition: it is the drop in the measured response relative to a control, in per cent. Turning to `CCN1CCCC1CNc1nc(Nc2ccc(OC)c(F)c2)nc(N2CCN(CC(=O)N3CCCC3)CC2)n1` (stereo not shown) [drawing 600, 2-{4-[4-[(1-Ethyl-pyrrolidin-2-yl-methyl)-amino]-6-(3-fluoro-4-meth-oxy-phenylamino)-[1,3,5tri-azin-2-yl]-piperazin-1-yl}-1-pyr-rolidin-1-yl-ethanonedihydrogen chloride salt], the inhibition at 20 µM (read-out: inhibition at 20 μM (printed in the Avg IC-50 column)) came out at 42%.

Turning to `COc1ccc(Nc2nc(NC3CCCCCC3)nc(Oc3ccc(C(C)=O)cc3Cl)n2)cc1Cl` [1-{3-Chloro-4-[4-(3-chloro-4-methoxy-phenylamino)-6-cycloheptylamino-[1,3,5]triazin-2-yloxy]-phenyl}-ethanone], the “activity in anti-proliferation assay” value is listed as “high activity”.

As to `COc1ccc(Nc2nc(NC3CCCCCC3)nc(N(C)C3CCN(C)CC3)n2)cc1F` [N^2-cycloheptyl-N^4-(3-fluoro-4-methoxyphenyl)-N^6-methyl-N^6-(1-methyl-piperidin-4-yl)-1,3,5-triazine-2,4,6-triamine], the “activity in anti-proliferation assay” value was “medium or moderate activity”.

`Clc1nc(Cl)nc(NC2CCCCCC2)n1` [Cycloheptyl-(4,6-dichloro-[1,3,5]tri-azin-2-yl)-amine]: the IC50 reads like this: under setting [1], 3000 to 7000 nM; under setting [2], 3750 nM.

With `COc1ccc(Nc2nc(NC3CCCCCC3)nc(Oc3ccccc3F)n2)cc1Cl` [N-(3-Chloro-4-methoxy-phenyl)-N′-cycloheptyl-6-(2-fluoro-phenoxy)-[1,3,5]triazine-2,4-diamine], the “activity in anti-proliferation assay” value was “high activity”.

In the case of `CN1CCC(N(C)c2nc(Nc3cccc(F)c3)nc(NC3CCCCCC3)n2)CC1` [drawing 598, N-Cycloheptyl-N′-(3-fluoro-phe-nyl)-N″-methyl-N″-(1-methyl-piper-idin-4-yl)-[1,3,5]triazine-2,4,6-tri-amine], the IC50 is under 3000 nM under setting [1] and 1230 nM under setting [2].

Turning to `CCN1CCCC(Oc2nc(Nc3ccc(OC)c(Cl)c3)nc(NC3CCCCCC3)n2)C1` (stereo not shown) [N-(3-Chloro-4-methoxy-phenyl)-N′-cycloheptyl-6-(1-ethyl-piperidin-3-yloxy)-[1,3,5]triazine-2,4-diamine], the “activity in anti-proliferation assay” value is given as “high activity”.

As for `COc1ccc(Nc2nc(NC3CCCCCC3)nc(Oc3ccc(C=O)cc3)n2)cc1Cl` [drawing 582, 4-[4-(3-Chloro-4-methoxy-phenyl-amino)-6-cyclo-heptylamino-[1,3,5]triazin-2-yl-oxy]-benzaldehyde], the IC50 by setting is: under setting [1], 3000 to 7000 nM; under setting [2], 4500 nM.

Turning to `CCN1CCCC1CNc1nc(Nc2ccc(C)c(F)c2)nc(NC2CCCCCC2)n1` (stereo not shown) [N-Cycloheptyl-N′-(1-ethyl-pyrrolidin-2-ylmethyl)-N″-(3-fluoro-4-methyl-phenyl)-[1,3,5]triazine-2,4,6-triamine], the “activity in anti-proliferation assay” value is “high activity”.

For `COc1ccc(-c2nc(Nc3ccc(OC)c(Cl)c3)nc(NC3CCCCCC3)n2)c(OC)c1` [N-(3-Chloro-4-methoxy-phenyl)-N′-cycloheptyl-6-(2,4-dimethoxy-phenyl)-[1,3,5]triazine-2,4-diamine], the “activity in anti-proliferation assay” value is recorded as “high activity”.

Turning to `COc1cc(OC)c(-c2nc(Nc3ccc(OC)c(Cl)c3)nc(NC3CCCCCC3)n2)c(OC)c1` [N-(3-Chloro-4-methoxy-phenyl)-N′-cycloheptyl-6-(2,4,6-trimethoxy-phenyl)-[1,3,5]triazine-2,4-diamine], the “activity in anti-proliferation assay” value was “high activity”.

On to `COc1ccc(Nc2nc(NC3CCCCCC3)nc(Oc3ccc(/C=N\O)cc3)n2)cc1Cl` [4-[4-(3-Chloro-4-methoxy-phenylamino)-6-cycloheptylamino-[1,3,5]triazin-2-yloxy]-benzaldehyde oxime], for which the “activity in anti-proliferation assay” value is “high activity”.
